One data set has as its system MCF7. As to the kind of experiment: Cytotoxicity against human MCF7 cells assessed as reduction in cell viability after 48 hrs by MTT assay. In kind it is functional, cell-based. As to conditions: MCF7, 48 h.
Data set [1] deals with MDA-MB-231. The experiment in a line: Cytotoxicity against human MDA-MB-231 cells assessed as reduction in cell viability after 48 hrs by MTT assay. In kind it is functional, cell-based. The settings on record: MDA-MB-231, 48 h. (In general: Tetrazolium assays rely on reduction of a dye to a coloured formazan, in cell work by metabolically active cells.)
For data set [2], the system named is MDA-MB-231. The experiment in a line: Down regulation of VEGFR2 in human MDA-MB-231 cells at IC50 concentration after 48 hrs by Western blot analysis. In kind it is functional, cell-based. (In general: In western blotting, separated proteins are transferred to a membrane and probed.)
In data set [3] the test system is MDA-MB-231. The experiment in a line: Induction of apoptosis in human MDA-MB-231 cells assessed as decrease in Bcl2 protein expression at IC50 concentration after 48 hrs by Western blot analysis. It counts as functional, cell-based.
Data set [4] is described as follows: Toxicity in Balb/C mouse implanted with EAC cells assessed as mortality at 60 to 120 mg/kg after 14 days. In kind it is organism-based. The settings on record: in vivo, 336 h, dose 60-120 mg/kg, time 14 day.
In a further data set the test system is Ehrlich. As to the kind of experiment: Antitumour activity against mouse EAC cells implanted in Balb/C mouse assessed as reduction in tumour volume at 60 to 120 mg/kg after 14 days. It counts as functional, organism-based. The settings on record: dose 60-120 mg/kg, time 14.0 day.
A short description of data set [5]: Cytotoxicity against human OSE cells assessed as reduction in cell viability after 48 hrs by MTT assay. In kind it is cell-based. The settings on record: HOSE.
The subject of data set [6] is MDA-MB-231. The experiment in a line: Induction of morphological changes in human MDA-MB-231 cells assessed as DNA fragmentation at IC50 concentration after 48 hrs by DAPI staining based fluorescent microscopic analysis. It counts as functional, cell-based.
The test system of data set [7] is MDA-MB-231. The experiment in a line: Induction of morphological changes in human MDA-MB-231 cells assessed as nuclear condensation at IC50 concentration after 48 hrs by DAPI staining based fluorescent microscopic analysis. It counts as functional, cell-based.
The subject of data set [8] is MDA-MB-231. As to the kind of experiment: Cytotoxicity against human MDA-MB-231 cells assessed as reduction in cell viability at 25 to 400 uM after 48 hrs by MTT assay. It counts as functional, cell-based. The settings on record: dose 25-400 µM.
Data set [9] concerns MDA-MB-231. As to the kind of experiment: Induction of cell cycle arrest in human MDA-MB-231 cells assessed as increase in accumulation of cells at S phase at 12.5 to 50 uM after 24 hrs by propidium iodide staining base flow cytometric analysis relative to control. It counts as functional. As to conditions: dose 12.5-50 µM. In general terms: Flow cytometry measures light scatter and fluorescence of single cells or particles in a stream.

The next data set deals with HEK293. The experiment in a line: Cytotoxicity against HEK293 cells assessed as reduction in cell viability after 48 hrs by MTT assay. It counts as cell-based. As to conditions: Homo sapiens, HEK293, 48 h.
Data set [10] concerns MDA-MB-231. As to the kind of experiment: Induction of cell cycle arrest in human MDA-MB-231 cells assessed as decrease in accumulation of cells at G0/G1 phase after 24 hrs by propidium iodide staining base flow cytometric analysis. It counts as functional, cell-based. The settings on record: dose 12.5-50 µM.
The test system of data set [11] is MDA-MB-231. The experiment in a line: Induction of cell cycle arrest in human MDA-MB-231 cells assessed as increase in accumulation of cells at M phase at 12.5 to 50 uM after 24 hrs by propidium iodide staining base flow cytometric analysis. The settings on record: dose 12.5-50 µM. It counts as functional, cell-based.
The nature of data set [12]: Toxicity in Balb/C mouse assessed as mortality at 30 to 120 mg/kg after 24 hrs. In kind it is organism-based. The settings on record: in vivo, dose 30-120 mg/kg.
For data set [13], the system named is MDA-MB-231. As to the kind of experiment: Induction of cell cycle arrest in human MDA-MB-231 cells assessed as accumulation of cells at G2M phase at 12.5 to 50 uM after 24 hrs by propidium iodide staining base flow cytometric analysis relative to control. The settings on record: dose 12.5-50 µM. In kind it is functional.
Data set [14] relates to MDA-MB-231. The experiment in a line: Induction of cell cycle arrest in human MDA-MB-231 cells assessed as accumulation of cells at G0/G1 phase at 50 uM after 24 hrs by propidium iodide staining base flow cytometric analysis (reference value: 73.2%). In kind it is functional.

pIC50: −log10 of the molar value. Active and inactive are the calls of the source. The rule behind the calls is not given here. Where only a bound is given, the exact number is not on record here.

In the case of `COc1ccc2cc([C@H](C)C(=O)N/N=C/c3c(F)cccc3F)ccc2c1`, the negative-log IC50 (pIC50) (usually −log10 of the IC50, conventionally taken in molar units) was 4.04 in the data set with MCF7 and 3.88 in the data set with MDA-MB-231 [1].
The matching figures for `COc1ccc2cc([C@H](C)C(=O)N/N=C/c3ccc(C#N)cc3)ccc2c1`: 4.22 and 3.41.
On to `COc1cccc2c1C(=O)c1c(O)c3c(c(O)c1C2=O)C[C@@](O)(C(=O)CO)C[C@@H]3O[C@H]1C[C@H](N)[C@H](O)[C@H](C)O1` [DOXORUBICIN], for which the result in the data set with MDA-MB-231 [2] and with MDA-MB-231 [3] was Active. For the same compound, the pIC50 in the data set on MDA-MB-231 [1] is 7.22.
As to `COc1ccc2cc([C@H](C)C(=O)N/N=C/c3cc(C(F)(F)F)cc(C(F)(F)F)c3)ccc2c1`, the pIC50 is 3.73 in the data set with MCF7 and 3.45 with MDA-MB-231 [1].
For `COc1ccc2cc([C@H](C)C(=O)N/N=C/c3ccc([N+](=O)[O-])o3)ccc2c1` the same measures were 4.38 and under 3.40.
The matching figures for `CCc1ccc(/C=N/NC(=O)[C@@H](C)c2ccc3cc(OC)ccc3c2)o1`: 3.58 and 3.75.
For `COc1ccc2cc([C@H](C)C(=O)N/N=C/c3ccc(C(F)(F)F)cc3)ccc2c1` the same measures were 3.83 and 4.17.
Regarding `COc1ccc2cc([C@H](C)C(=O)N/N=C/c3cc(Br)cs3)ccc2c1`, the results for the pIC50 in the data set with MCF7 and with MDA-MB-231 [1] were under 3.40 and 3.74, respectively.
Consider `COc1ccc2cc([C@H](C)C(=O)N/N=C/c3cccc(C(F)(F)F)c3)ccc2c1`, for which the pIC50 in the data set with MCF7 was 4.16; in the data set on MDA-MB-231 [1], 4.26.
For `COc1ccc2cc([C@H](C)C(=O)N/N=C/c3cccc(OC(F)(F)F)c3)ccc2c1` the same measures were under 3.40 and 3.80.
The matching figures for `COc1ccc2cc([C@H](C)C(=O)N/N=C/c3cccn3C)ccc2c1`: 3.45 and 3.89.
The matching figures for `COc1ccc2cc([C@H](C)C(=O)N/N=C/c3ccc(OC(F)(F)F)cc3)ccc2c1`: under 3.40 and 4.10.
For `COc1ccc2cc([C@H](C)C(=O)N/N=C/c3ccccc3OC(F)(F)F)ccc2c1`, the Activity result is “Non-Toxic” in data set [4]; 12.3% with MDA-MB-231 [9]; “Dose-dependent effect” with MDA-MB-231 [10]; “Non-Toxic” in [12]; 14.5% with MDA-MB-231 [13]; 18.2% with MDA-MB-231 [14]. For the same compound, the result in the data set with MDA-MB-231 [2], in the data set on Ehrlich, in the data set with MDA-MB-231 [6], in the data set with MDA-MB-231 [7], in the data set on MDA-MB-231 [8] and in the data set on MDA-MB-231 [11] was Active. Moreover, the result in the data set on MDA-MB-231 [3] was Active. Also, the negative-log IC50 (pIC50) in data set [5] was 4.31; in the data set on MCF7 it was 4.22; with HEK293 it was 3.79; in the data set with MDA-MB-231 [1], 4.65.
`COc1ccc2cc([C@H](C)C(=O)O)ccc2c1` [NAPROXEN]: the outcome with MDA-MB-231 [6] and in the data set on MDA-MB-231 [7] was inactive. Also, the pIC50 in the data set with MCF7 and in the data set with MDA-MB-231 [1] was under 3.40 each time.
